In patent US11679097B2, “Combination product containing limonoid compound and biguanide compound” (ZHEJIANG YANGSHENGTANG INSTITUTE OF NATURAL MEDICATION CO., …, priority 2017, dated 2023):

Tests used:
Type in all cases: in vivo
STZ mice [1] = assay: Blood glucose in mouse model of type II diabetes with pancreatic islet damage and obesity (Example 5); conditions: high-fat diet + STZ ICR mice; single administration 0.5 g/kg per day by gavage, three weeks
Method: (§1) It should be noted that the conditions for raising the mice were as follows: the temperature was 23±1° C., the humidity was 55±10%, the lights were turned on between 7 am and 7 pm (the lights were turned off at other time), and the mice were allowed to access to water and feed freely. The experimental feed was mouse growth-stable feed (GB M2118), and the daily feeding and management of the animals were under the responsibility of the animal security department, which provided the animals with sufficient padding and fresh drinking water daily.
SPSS 16.0 software was used for statistical analysis.

db/db mice = assay: Blood glucose and insulin in mouse model of type II diabetes (Example 4); conditions: single administration 0.2 g/kg per day by gavage, two weeks
Source text: Effects of a Limonoid Compound, Metformin or a Combination Thereof on Blood Glucose and Insulin in a Mouse Model of Type II Diabetes
In the present embodiment, the limonoid compound selected nomilin, deacetylnomilin, nomilin acid, deactylnomilin 17-β-D-glucopyranoside, and a nomilin single administration group, deacetylnomilin single administration group, nomilin acid single administered group, deactylnomilin 17-β-D-glucopyranoside single administration group, and combination thereof with metformin administration groups were set, respectively.
as §1, with “Conditions for experimental feeding: as type II diabetes model mice, 6-week-old SPF-grade db/db mice were purchased from the Nanjing Model Biology Institute, and subjected to experimental feeding after 7 days of preliminary feeding. It” for “It”
Experimental grouping: male db/db mice (20±2 g) were selected, 18 male mice in each group were tested, and drinking bottles were sterilized weekly. The experimental groups included the normal control group (db/m, n=18), the model group (db/db, n=18), the nomilin group (db/db, n=18), the deacetylnomilin group (db/db, n=18), the nomilin acid group (db/db, n=18), the deactylnomilin 17-β-D-glucopyranoside group (db/db, n=18), the metformin group (db/db, n=18), the nomilin/metformin combination group (db/db, n=18), the deacetylnomilin/metformin combination group (db/db, n=18), the nomilin acid/metformin combination group (db/db, n=18), the deactylnomilin 17-β-D-glucopyranoside/combination group (db/db, n=18).
Gavage doses: nomilin at a dose of 0.2 g/kg was gavaged per day for the nomilin group, deacetylnomilin at a dose of 0.2 g/kg was gavaged per day for the deacetylnomilin group, nomilin acid at a dose of 0.2 g/kg was gavaged per day for the nomilin acid group, deacetylnomilin […] at a dose of 0.2 g/kg was gavaged per day for the deactylnomilin glucopyranoside group, metformin at a dose of 0.2 g/kg was gavaged per day for the metformin group, nomilin at a dose of 0.1 g/kg and metformin at a dose of 0.1 g/kg were simultaneously gavaged per day for the nomilin/metformin combination group, nomilin acid at a dose of 0.1 g/kg and metformin at a dose of 0.1 g/kg were simultaneously gavaged per day for the nomilin acid/metformin combination group, deacetylnomilin at a dose of 0.1 g/kg and metformin at a dose of 0.1 g/kg were simultaneously gavaged per day for the deacetylnomilin/metformin combination group, deactylnomilin 17-β-D-glucopyranoside at a dose of 0.1 g/kg and metformin at a dose of 0.1 g/kg were simultaneously gavaged per day for the deactylnomilin 17-β-D-glucopyranoside/metformin combination group, the gavage volume was 10 mL/kg, and the normal group and the model group were administrated with 10 mL/kg of distilled water. Two weeks later, the blood glucose values were measured by tail trimming method (Johnson's blood glucose meter) 1 h after the last administration, and serum insulin levels were measured with blood collected from orbital cavity by enzyme-linked immunosorbent assay (Elisa), and the average of each group was obtained. SPSS 16.0 software was used for statistical analysis. The data were expressed as mean and standard deviation. The data before and after were analyzed by t-test, and P<0.05 was considered statistically significant.

STZ mice [2] = assay: Blood glucose in mouse pancreatic islet β-cell injury model (Example 3); conditions: STZ ICR mice; single administration 0.1 g/kg per day by gavage, two weeks; 1 h after last administration
Source text: Effects of a Limonoid Compound, Metformin or a Combination Thereof on Blood Glucose in a Mouse Pancreatic Islet β-Cell Injury Model In this example, a mouse pancreatic islet β-cell injury model was established by modeling ICR mice with streptozotocin (STZ) (referred to the prior art literature: Li Nan et al., Protective effect of pine pollen on kidney damage in diabetic nephropathy mice, Science and Technology Review, 2014, 32 (4/5): 95-99), and used to complete the evaluation of hypoglycemic effect in animals (this model could simulate pancreatic islet β-cell damage state of type I and type II diabetics). […] Conditions of experimental feeding: ICR mice (20±2 g), aged 6 weeks, purchased from Zhejiang Academy of Medical Sciences, and subjected to experimental feeding after 7 days of preliminary feeding. […] The experimental feed was mouse growth-stable feed (GB […]), and the daily feeding and management of the animals were under the responsibility of the animal security department, which provided the animals with sufficient padding and fresh drinking water daily. Experimental grouping: 15 male mice were randomly selected as the normal control group. […] Gavage doses: the gavage dose was 0.1 g/kg per day for the […] group, the gavage dose was 0.1 g/kg per day for the […] group, the gavage dose was 0.1 g/kg per day for the […]-glucopyranoside group, the gavage dose of metformin was 0.1 g/kg per day for the metformin group, […] dose of 0.05 g/kg and metformin at a dose of 0.05 g/kg were simultaneously gavaged per day for the […]/metformin combination group, […] dose of 0.05 g/kg and metformin at a dose of 0.05 g/kg were simultaneously gavaged per day for the […]/metformin combination group, […]-glucopyranoside at a dose of 0.05 g/kg and metformin at a dose of 0.05 g/kg were simultaneously gavaged per day for the […]-glucopyranoside/metformin combination group, the gavage volume was 10 mL/kg, and the normal group and the model group were administrated with 10 mL/kg of distilled water. […] SPSS 16.0 software was used for statistical analysis. The data were expressed as mean and standard deviation. The data before and after were analyzed by t-test, and P<0.05 was considered statistically significant.

| Compound | Blood glucose value (STZ mice [1]) | Blood glucose value (STZ mice [2]) | also measured |
| --- | --- | --- | --- |
| deactylnomilin 17-β-D-glucopyranoside | 12.7 ± 2.5 mmol/L | – | Insulin (db/db mice; serum, Elisa): 8.40 ± 3.27 pg/mL; Blood glucose value (db/db mice; 1 h after last administration): 12.8 ± 5.5 mmol/L |
| ichangin 17-β-D-glucopyranoside | – | 14.9 ± 2.1 mmol/L | – |
| nomilin 17-β-D-glucopyranoside | 12.8 ± 2.9 mmol/L | – | – |
| CC(C)(O)[C@@H]1CC(=O)[C@]2(C)[C@H](CC[C@@]3(C)[C@H](c4ccoc4)OC(=O)[C@H]4O[C@]432)[C@]12COC(=O)C[C@@H]2O [Ichangin, ichangin] | – | 14.8 ± 1.9 mmol/L | – |
| nomilinic acid 17-β-D-glucopyranoside | 13.5 ± 2.4 mmol/L | – | – |
| CC1(C)O[C@](C)(O)[C@]2(C)[C@H]3CC[C@@]4(C)[C@H](c5ccoc5)OC(=O)[C@H]5O[C@]54[C@]3(C)C(=O)C[C@@H]12 [Ichangensin, ichangensin] | – | 14.5 ± 3.5 mmol/L | – |
